For 11 molecules, Activity and IC50 results are on record in ChEMBL document CHEMBL6109142 (J Med Chem, 2025).

The structures appear in SMILES notation. pIC50: −log10 of the molar value. The source made the active and inactive calls. The rule behind the calls is not given here.

One data set concerns Calu-3. Briefly: Cytotoxicity against human Calu-3 cells assessed as cell viability at 10 uM measured after 72 hrs by luminescence based Cell-Titer-Glo assay. It is filed as toxicity. The note with it: calu-3, 72 h.
Data set [1] has as its target T1, Transmembrane protease serine 2 (Homo sapiens, UniProt O15393). Briefly: Inhibition of recombinant TMPRSS2 (unknown origin) extracted from baculovirus infected in Sf9 cells assessed as residual activity using Boc-QAR-AMC as substrate at 1 nM measured after 1 hr by fluorescence based analysis relative to control.
Data set [2] deals with SARS-CoV-2. Briefly: Antiviral activity against SARS-CoV-2 pseudotyped with delta spike protein infected in human Calu-3 cells assessed as prevention of virus-like particle cellular entry at 300 nM preincubated with cells for 3 hrs followed by viral infection and measured after 72 hrs by ONE-Glo-Ex luciferase assay relative to control. It is filed as functional, Severe acute respiratory syndrome coronavirus 2. The note with it: time 75 hrs.

Data set [3] addresses T1, Transmembrane protease serine 2. Nature of the data set: Inhibition of recombinant TMPRSS2 (unknown origin) extracted from baculovirus infected in Sf9 cells using Boc-QAR-AMC as substrate measured after 1 hr by fluorescence based analysis.
In data set [4] the test system is SARS-CoV-2. Briefly: Antiviral activity against SARS-CoV-2 EG.5.1 infected in human Calu-3 cells assessed as reduction in residual intracellular nucleocapsid value at 1 uM preincubated with cells for 3 hrs followed by viral infection and measured after 48 hrs by immunostaining based analysis. It is filed as functional, organism-based. The note with it: Severe acute respiratory syndrome coronavirus 2, time 51.0 hrs.

T1 sequence (O15393 1-255 limits assumed): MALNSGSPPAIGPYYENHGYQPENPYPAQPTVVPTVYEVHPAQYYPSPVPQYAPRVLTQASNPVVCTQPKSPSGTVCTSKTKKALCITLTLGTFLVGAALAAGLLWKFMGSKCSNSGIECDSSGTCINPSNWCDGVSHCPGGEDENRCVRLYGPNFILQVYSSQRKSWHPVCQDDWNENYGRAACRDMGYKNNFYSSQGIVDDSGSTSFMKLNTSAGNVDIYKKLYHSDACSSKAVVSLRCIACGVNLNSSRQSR
T1 sequence (O15393 256-492 limits assumed): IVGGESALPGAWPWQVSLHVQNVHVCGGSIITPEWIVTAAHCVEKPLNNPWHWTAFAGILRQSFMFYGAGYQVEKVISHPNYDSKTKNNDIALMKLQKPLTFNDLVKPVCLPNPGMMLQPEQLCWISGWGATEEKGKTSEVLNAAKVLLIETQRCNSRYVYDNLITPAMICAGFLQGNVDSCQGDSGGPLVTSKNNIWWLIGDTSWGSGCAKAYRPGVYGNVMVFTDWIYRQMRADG

Turning to `C[C@H](NC(=O)CCCCNC(=N)N)C(=O)N[C@@H](Cc1ccccc1)C(=O)N[C@@H](CCCNC(=N)N)C(=O)c1nc2ccccc2s1`, the Activity result in the data set with Calu-3 was “Non-toxic”; in data set [1] it was 8%; in the data set on SARS-CoV-2 [2] it was 14%. Besides, the negative logarithm of the IC50 (pIC50) (in general, the IC50 on a negative log10 scale, so that one unit is a factor of ten) in data set [3] was 9.18. Moreover, the result in the data set with SARS-CoV-2 [4] was Active.

On to `N=C(N)NCCCCC(=O)N[C@@H](CC(N)=O)C(=O)N[C@@H](Cc1ccccc1)C(=O)N[C@@H](CCCNC(=N)N)C(=O)c1nc2ccccc2s1`, for which the Activity result with Calu-3 is “Non-toxic”; in data set [1], 11%; in the data set on SARS-CoV-2 [2], 19%. The pIC50 in data set [3] is 9.06. Further, the result with SARS-CoV-2 [4] was Active.

As for `N=C(N)NCCC[C@H](NC(=O)[C@H](Cc1ccccc1)NC(=O)[C@@H]1CCC(=O)NCCCC(=O)N1)C(=O)c1nc2ccccc2s1`, the Activity result in the data set on Calu-3 is “Non-toxic”; in data set [1], 3%; in the data set on SARS-CoV-2 [2] it was 20%. The negative-log IC50 (pIC50) in data set [3] was 9.00. In addition, the result in the data set on SARS-CoV-2 [4] was Active.

Turning to `CC(C)[C@H](NC(=O)[C@H](Cc1cscn1)NC(=O)CCc1ccccc1)C(=O)N[C@@H](CCCNC(=N)N)C(=O)c1nc2ccccc2s1`, the Activity result is “Non-toxic” in the data set with Calu-3, 34% in data set [1] and 15% with SARS-CoV-2 [2]. Further, in data set [3], the negative logarithm of the IC50 (pIC50) is 8.52. Also, the result in the data set on SARS-CoV-2 [4] was Active.

Consider `N=C(N)NCCCCC(=O)N[C@@H](CCC(N)=O)C(=O)N[C@@H](Cc1ccccc1)C(=O)N[C@@H](CCCNC(=N)N)C(=O)c1nc2ccccc2s1`, for which the Activity entry is “Non-toxic” in the data set on Calu-3, 16% in data set [1] and 13% in the data set with SARS-CoV-2 [2]. Also, in data set [3], the pIC50 is 8.85. The outcome with SARS-CoV-2 [4] was Active.

In the case of `N=C(N)NCCCCC(=O)N[C@@H](Cc1ccccc1)C(=O)N[C@@H](Cc1ccccc1)C(=O)N[C@@H](CCCNC(=N)N)C(=O)c1nc2ccccc2s1`, the figures for the Activity result (in the data set with Calu-3; in data set [1]; with SARS-CoV-2 [2]) were “Non-toxic”, 10% and 23%, respectively. Moreover, in data set [3], the pIC50 was 9.18. The outcome in the data set on SARS-CoV-2 [4] was Active.

In the case of `N=C(N)NCCCCC(=O)N[C@H](CCC(N)=O)C(=O)N[C@@H](Cc1ccccc1)C(=O)N[C@@H](CCCNC(=N)N)C(=O)c1nc2ccccc2s1`, the Activity result with Calu-3 was “Non-toxic”; in data set [1], 28%; with SARS-CoV-2 [2] it was 15%. The pIC50 in data set [3] was 8.85. The result in the data set with SARS-CoV-2 [4] was Active.

As for `N=C(N)NCCC[C@H](NC(=O)[C@H](Cc1ccccc1)NC(=O)[C@H](CCC(N)=O)NC(=O)CCO)C(=O)c1nc2ccccc2s1`, the Activity entry in the data set on Calu-3 is “Non-toxic”; in data set [1], 10%; with SARS-CoV-2 [2], 24%. The pIC50 in data set [3] is 8.85. Moreover, the outcome with SARS-CoV-2 [4] was Active.

For `N=C(N)NCCC[C@H](NC(=O)OCc1ccccc1)C(=O)N[C@@H](CCC(N)=O)C(=O)N[C@@H](Cc1ccccc1)C(=O)N[C@@H](CCCNC(=N)N)C(=O)c1nc2ccccc2s1`, the Activity result in the data set on Calu-3 is “Non-toxic”; in data set [1] it was 7%; in the data set on SARS-CoV-2 [2], 33%. Moreover, the negative-log IC50 (pIC50) in data set [3] is 8.85. Moreover, the result in the data set with SARS-CoV-2 [4] was Active.

In the case of `CN(C)C(=O)CC[C@H](NC(=O)CCCCNC(=N)N)C(=O)N[C@@H](Cc1ccccc1)C(=O)N[C@@H](CCCNC(=N)N)C(=O)c1nc2ccccc2s1`, the Activity entry in the data set on Calu-3 was “Non-toxic”; in data set [1], 16%; in the data set on SARS-CoV-2 [2], 18%. In data set [3], the pIC50 is 9.21. Moreover, the result in the data set with SARS-CoV-2 [4] was Active.

Regarding `N=C(N)NCCCCC(=O)N[C@@H](CCC(N)=O)C(=O)N[C@@H](CO)C(=O)N[C@@H](CCCNC(=N)N)C(=O)c1nc2ccccc2s1`, the Activity entry with Calu-3 was “Non-toxic”; in data set [1], 19%. Further, in data set [3], the pIC50 is 8.49. Besides, the outcome with SARS-CoV-2 [4] was Active.
